Consider 1 compound from article PMC2854261 (Analytical biochemistry, 2010).

Molecules are shown by their SMILES. pIC50: −log10 of the molar value.

For the assay, the target named is human DNA (cytosine-5)-methyltransferase I (DNMT1), Δ501DNMT1 (Homo sapiens, UniProt P26358). Type of assay: biochemical.
Chain of human DNA (cytosine-5)-methyltransferase I (DNMT1), Δ501DNMT1 (P26358 502-1616, stated change not applied): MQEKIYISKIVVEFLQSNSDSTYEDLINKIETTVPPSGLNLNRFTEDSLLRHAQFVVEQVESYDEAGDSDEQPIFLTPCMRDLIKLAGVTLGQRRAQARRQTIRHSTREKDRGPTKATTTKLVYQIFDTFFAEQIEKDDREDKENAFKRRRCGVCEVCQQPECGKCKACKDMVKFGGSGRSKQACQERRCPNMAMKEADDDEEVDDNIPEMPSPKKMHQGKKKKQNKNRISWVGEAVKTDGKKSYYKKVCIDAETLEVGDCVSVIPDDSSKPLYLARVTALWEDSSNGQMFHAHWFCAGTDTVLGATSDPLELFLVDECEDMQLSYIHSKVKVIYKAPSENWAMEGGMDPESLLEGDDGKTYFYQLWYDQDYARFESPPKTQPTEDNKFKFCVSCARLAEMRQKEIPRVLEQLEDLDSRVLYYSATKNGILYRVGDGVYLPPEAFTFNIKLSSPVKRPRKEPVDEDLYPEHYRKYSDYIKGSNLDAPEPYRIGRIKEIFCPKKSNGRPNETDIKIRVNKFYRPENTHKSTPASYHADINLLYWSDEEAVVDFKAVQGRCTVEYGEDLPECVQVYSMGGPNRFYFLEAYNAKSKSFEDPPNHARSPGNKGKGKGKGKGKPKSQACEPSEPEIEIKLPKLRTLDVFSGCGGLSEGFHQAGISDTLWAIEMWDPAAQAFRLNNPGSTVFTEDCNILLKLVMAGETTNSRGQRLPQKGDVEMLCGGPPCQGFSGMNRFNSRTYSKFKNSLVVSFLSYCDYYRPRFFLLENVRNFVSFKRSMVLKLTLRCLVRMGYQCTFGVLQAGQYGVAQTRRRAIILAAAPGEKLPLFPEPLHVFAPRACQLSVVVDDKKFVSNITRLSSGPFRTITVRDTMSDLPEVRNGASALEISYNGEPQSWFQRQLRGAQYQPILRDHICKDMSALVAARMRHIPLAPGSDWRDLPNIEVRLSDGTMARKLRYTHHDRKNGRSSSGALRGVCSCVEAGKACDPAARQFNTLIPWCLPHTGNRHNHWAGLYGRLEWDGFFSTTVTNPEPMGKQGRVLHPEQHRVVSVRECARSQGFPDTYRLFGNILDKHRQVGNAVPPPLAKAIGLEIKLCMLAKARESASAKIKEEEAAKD

In general, pIC50 refers to −log10 of the IC50, conventionally taken in molar units. A higher pIC50 goes with a small IC50. `Nc1ncnc2c1ncn2[C@@H]1O[C@H](CO)[C@@H](O)[C@H]1O` [adenosine] gave a pIC50 of 2.52.
